Reference: US6194465A, “Benzamide therapeutics for the treatment of inflammatory bowel disease” (priority 1999, dated 2001)
“Also recorded” adds a separate entry of the source.

Tests used:
[1] = system: adjuvant induced arthritis; assay: Rat adjuvant induced arthritis model of chronic inflammation; type: in vivo; conditions: Compound A 100 mg/kg po or dexamethasone 0.1 mg/kg, daily 7 days, vs adjuvant
Experimental: Confirmation of the anti-inflammatory activity of Compound A was sought in another related biological test-the rat adjuvant induced arthritis model of chronic inflammation. This model was selected because almost all of the anti-IBD agents also show efficacy in standard arthritis models. In this model Compound A was tested at 100 mg/kg, po in a 1 % methyl cellulose suspension. On day 0 all animals received an injection of either Mycobacterium butyricum (100μL, 20 mg/mL in mineral oil) or mineral oil in the base of the tail. 14 days after this injection, rat paws were measured and all the rats were randomized into 3 treatment groups of 8. A control adjuvant group (group without further treatment), a group to be treated with dexamethasone (steroid reference) and a group to treated with Compound A. Rats received Compound A 100 mg/kg, po, or dexamethasone 0.1 mg/kg, op, daily until day 21 (7 days dosing). On day 21 rats were sacrificed. Paw measurements were taken after 5 and 7 days treatment.

[2] = system: TNBS-induced colonic inflammation; assay: TNBS model, Compound N and comparison with 5-ASA; type: in vivo, rats
Experimental: Male Sprague-Dawley rats (200-250 g) were housed in standard cages (2 per cage) and fed rat chow and tap water ad libitum. After an overnight fast, rats were brought into the laboratory and randomized into treatment groups. Colitis was induced by intrarectal administration of 0.5 ml of TNBS solution (50 mg/kg in 50% ethanol) using a 1 ml syringe attached to a 5 cm polyethylene catheter. Control animals received saline (0.9%) or a 1 % methyl cellulose suspension at identical time points.
Three days after TNBS administration, the rats were sacrificed and the colons excised and opened longitudinally.
Compound N was subjected to a series of TNBS activity tests as just described.
Groups of rats (11 rats/group) were administered Compound N (10 mg/kg po), 5-ASA (10 mg/kg po), 5-ASA (300 mg/kg po), or the methylcellulose vehicle 1 hour prior to the TNBS enema. After 3 days the rats were sacrificed and the colonic damage morphologically evaluated.
Groups of rats, were administered increasing doses of Compound N (0-100 mg/kg-po) 1 hour prior to TNBS enema. In these experiments the endpoint was macroscopic assessment.

[3] = system: inflammatory bowel disease; conditions: cited from earlier work; for effectiveness in small bowel inflammation / side-effects (in words): IBD patients
[4] = system: TNBS induced model of colitis; conditions: only if multiple high doses administered intra-rectally; cited from earlier work
[5] = PK parameter estimates, 30 mg/kg po (Table 1); type: in vivo, rats; conditions: Compound N relative to Compound A, rats, 30 mg/kg po; 30 mg/kg
Experimental: The bioavailability of compound N is depicted in FIG. 10 as well. |(NRTs Dosed 30 mg/kg po in 1% Methyl Cellulose, n = 3 rats/NRT)

lethality induced by LPS = conditions: various rodent models of septic shock; cited from earlier work
[6] = system: senescence accelerated mice; conditions: cited from earlier work
[7] = system: inducible nitric oxide synthetase (iNOS); conditions: cited from earlier work
[8] = following ischemia; cited from earlier work
[9] = 0-100 mg/kg po, 1 hour prior to TNBS

Q: Which “inhibition of the inflammatory response” value [1] does the source give for C[C@@H]1C[C@H]2[C@@H]3CCC4=CC(=O)C=C[C@]4(C)[C@@]3(F)[C@@H](O)C[C@]2(C)[C@@]1(O)C(=O)CO [dexamethasone, reference compound] here?
A: significant inhibition of the inflammatory response (p<0.005)

Q: With Nc1ccc(O)c(C(=O)O)c1 [Compound 5-ASA] as the molecule, how does the “effect on TNBS-induced colonic inflammation, 5-ASA 10 mg/kg” value ([2]; 10 mg/kg po, 1 hour before TNBS) read?
A: no effect

Q: What about the “effect on TNBS-induced colonic inflammation, 5-ASA 300 mg/kg” value ([2]; 300 mg/kg po, 1 hour before TNBS) of the same molecule?
A: no effect

Q: What about the “time to full efficacy” value ([3]; 5-ASA therapy) of the same molecule?
A: 6-8 weeks

Q: What about the “response in Crohn's disease” value [3] of the same molecule?
A: poor

Q: What about the “response in early ulcerative colitis” value [3] of the same molecule?
A: fair to mild

Q: What about the “response in severe ulcerative colitis” value [3] of the same molecule?
A: poor

Q: What about the “protection, 5-ASA intra-rectal” value [4] of the same molecule?
A: 50%

Q: For CC(C)(C)NC(=O)c1ccc(N)cc1 [Compound N, N-tert-butyl-4-aminobenzamide], which “clearance / systemic exposure / variability (in words)” value [5] is on record?
A: lower clearance; also recorded: overall greater systemic exposure; also recorded: relatively low variability in plasma concentration

Q: And the “colonic morphological score, dose-response (in words)” value [2, 9]?
A: dose=dependent reduction in the colonic morphological score

Q: And the significance of protection [2, 9]?
A: only significant (p <0.05) at the 10, 30 and 100 mg/kg doses

Q: What about the “efficacy, 10 mg/kg po, Compound N” value ([2]; 10 mg/kg po single dose, 1 hour before TNBS) of the same molecule?
A: excellent efficacy

Q: What about the “activity relative to Compound A” value ([2]; TNBS activity tests) of the same molecule?
A: better activity than that of Compound A

Q: What about the protection ([2]; TNBS activity tests) of the same molecule?
A: 75%

Q: For O=C(O)c1cc(/N=N/c2ccc(S(=O)(=O)Nc3ccccn3)cc2)ccc1O [sulfasalazine], which “response in Crohn's disease” value [3] is on record?
A: poor

Q: And the “effectiveness in small bowel inflammation” value [3]?
A: Neither sulfasalazine nor olsalazine are effective

Q: What about the “response in early ulcerative colitis” value [3] of the same molecule?
A: fair to mild

Q: And the “response in severe ulcerative colitis” value [3]?
A: poor

Q: Which results are given for Nc1ccc(S(=O)(=O)Nc2ccccn2)cc1 [sulfapyridine]?
A: side-effects (in words) [3]: significant side-effects such as reversible sperm abnormalities, dyspepsia or allergic reactions to the sulpha component; patients who cannot tolerate ([3]; sulfapyridine component of sulfasalazine): at least 20 % of patients

Q: Which “effectiveness in small bowel inflammation” value [3] does the source give for O=C(O)c1cc(/N=N/c2ccc(O)c(C(=O)O)c2)ccc1O [olsalazine] here?
A: Neither sulfasalazine nor olsalazine are effective

Q: What about the “side-effects (in words)” value [3] of the same molecule?
A: side effects are reduced

Q: What does the source list for CC(C)(C)[N+]([O-])=Cc1ccccc1 [PBN, α-phenyl-t-butyl nitrone]?
A: protection against lethality induced by LPS (lethality induced by LPS): consistent and well documented protection; increase of life span [6]: one third; block of iNOS [7]: block inducible nitric oxide synthetase; trapping of reactive oxygen species and/or secondary free radicals [8]: trap reactive oxygen species and/or secondary free radicals
